Several values for one entry are separate records, joined by “and”; a condition that tells them apart may be missing. Identical values can stand only once. Entries after “also recorded” stand apart in the source; their conditions may differ. Like-named read-outs stand apart in the source and are kept apart here.
What was measured:
GABAA receptors [1] = test: FLIPR membrane potential fluorescent dye assay in cultured human airway smooth muscle cells; type: cell-based; conditions: for antagonism of THIP-induced fluorescent / membrane potential changes: picrotoxin 200 uM, THIP 500 uM and 1 mM
Method: (§1) Human immortalized bronchial smooth muscle cell lines prepared as described were grown to confluence in M199 media (Gibco) containing 10% fetal bovine serum, 0.25 ng/ml epidermal growth factor, 1 ng/ml fibroblast growth factor, ITS supplement (1 mg/ml insulin, 0.55 mg/ml transferrin, 0.67 ug/ml sodium selenium) and antibiotics (100 units/ml penicillin G sodium, 100 μg/ml streptomycin sulfate, 0.25 μg/ml amphotericin B) in a humidified atmosphere of 5% CO2/95% air at 37° C. Twenty four hours prior to study, cells were fed with serum and growth factor free media.
To determine whether activation of GABAA receptors induces membrane potential changes in cultured human airway smooth muscle cells the FLIPR in vitro fluorescent dye assay (Molecular Devices) was used. Human airway smooth muscle cells (prepared as described in Reference Examples 1 and 2) were grown to 100% confluence in 96 well black-walled plates and were washed with warmed (37° C.) low chloride buffer (consisting of in mM: 160 sodium-D-gluconate, 4.5 potassium-D-gluconate, 2 CaCl2, 1 MgCl2, 10 D-glucose, and 10 Hepes pH 7.4) four times. A stock solution (100% dye) of FLIPR blue dye was prepared by reconstitution of 1 vial (125 mg) with 100 ml of the low chloride buffer (assay buffer). A 50% working stock was prepared by further diluting the reconstituted blue dye 1:1 with assay buffer and was used to load cells (90 ul/well) over 20 minutes at 37° C. All reagents were dissolved in assay buffer. Baseline fluorescence was measured for 3 min prior to the first control additions (assay buffer). Three minutes later, airway smooth muscle cells were exposed to varying concentrations of THIP (0-10 mM) to determine a dose response. The fluorescence produced by membrane potential change following solution additions was quantified after subtracting changes induced by assay buffer alone. For subsequent antagonist assays, the first solution injected was either assay buffer, vehicle control (0.05% DMSO final), or the GABAA receptor antagonist picrotoxin (200 uM final) followed THIP (either 0.5 or 1 mM).

[2] = system: Guinea pig (GP) tracheal rings; test: Isoproterenol-mediated relaxation of acetylcholine-contracted guinea pig tracheal rings with α4 GABAA selective agonist; conditions: for EC50: Cavia porcellus, read-out: EC50 of isoproterenol relaxation concentration-response curve; for potentiation of isoproterenol-mediated relaxation: single dose 500 uM THIP or 200 uM taurine, acetylcholine pre-contracted
GABAA receptors [3] = test: Whole cell voltage clamp electrophysiology (Fluxion microfluidic plate) of human airway smooth muscle cells; type: cell-based
Method: as §1
On the day of the assay, human airway smooth muscle cells (prepared as described in Reference Examples 1 and 2) were released from collagen-coated plates with collagenase type IV (Sigma C5138; 500 units/ml). The cells were resuspended in external buffer solution (In mM: NaCl 147, MgCl2 2, CaCl2 2, HEPES 10, dextrose 10; pH 7.2, osmolarity 320 mOsm) and rocked at room temperature to allow cells to obtain a spherical shape. Approximately 1 million cells were centrifuged (300×g, 3 min), washed ×2 in external buffer, and loaded (final volume of 400 uL) into a Fluxion microfluidic plate with each experimental group representing an ordered arrangement of 20 cells in parallel whole cell configuration. Following generation of adequate cellular membrane seals (40-120 MΩ), whole cell recordings were obtained under voltage clamp conditions (−80 mV) to a dose response to THIP (0.3 uM-300 uM). In separate assays cells were also co-treated simultaneously with 20 uM gabazine (GABAA receptor antagonist) and 25 uM THIP. In addition, to confirm that THIP-induced currents were due to chloride efflux, in separate experiments the intracellualar buffer (in mM: MgCl2 4, EGTA 10, HEPES 10, CsCl 130, Mg-ATP 4, CsOH 10, pH 7.2, 290 mOsM) was modified by replacing […] CsCl with 140 Cs gluconate to inhibit the magnitude of the […] current at −80 mV.

human Jurkat E6-1 cells = test: Automated patch clamp (IonFlux) for potentiation of GABA, membrane polarization in Jurkat E6-1 cells; type: cell-based; conditions: tested with 0.1 μM GABA; preliminary assay development studies
Method: Inserts show inward rectifying currents ([…]) at various doses. Compounds tested with 0.1 μM GABA. Curves show average of four determinations at indicated doses and standard deviations.
Both compounds were investigated using a CD4+ T-lymphocyte cell line (Jurkat E6-1) for potentiation of GABA using automated patch clamp (IonFlux). In contrast to manual patch clamp assays; this high throughput system enables dose dependent efficacy testing of more than 20 test conditions per day.

murine tracheal rings = test: Relaxation of acetylcholine-induced contraction in murine tracheal rings (wild type and GABAA α4 knockout), Example 13; conditions: CMD-45 100 uM, 30 minutes, ACh ~EC50; wild type vs GABAA α4 knockout mice; p<0.01 vs vehicle
From the text: Adult male C57/B16 wild type mice or adult male mice globally deficient in the GABAA a4 subunit (from Dr. Gregg Homanics, University of Pittsburgh) were euthanized with an overdose of sodium pentobarbital. Tracheas were rapidly removed and placed in modified Krebs-Henseleit buffer of the following composition in mM: 115 NaCl, 2.5 KCl, 1.91 CaCl2, 2.46 MgSO4, 1.38 NaH2PO4, 25 NaHCO3, 5.56 D-glucose: pH 7.4 Connective tissue was removed under a dissecting microscope and tracheas were cut in half axially. One-half trachea was used in each chamber of a myograph bath (DMT: Ann Arbor, Mich.), one-half used for vehicle treatment and the other half used for drug (i.e. CMD-45) treatment. […] Tension was continuously digitally recorded using BioPac hardware connected to Acknowledge software. […] An ACh ˜EC50 was determined for each tracheal ring based on these dose response curves.
In relaxation studies, tracheal ring were contracted to the determined ˜EC50 and force was allowed to plateau. Single concentrations of vehicle (0.1% DMSO) or CMD-45 (100 uM) were added and continuous muscle force was measured over 30 minutes. The data are expressed as the percent of remaining tone at 30 minutes relative to the initial force achieved with the EC50 concentration of acetylcholine. […]

GP tracheal rings = test: Direct relaxation of guinea pig tracheal rings contracted with TEA or substance P; conditions: CM-D-45 200 um, 15 minutes
Method: Male Hartley guinea pigs (approximately 400 g) were anesthetized with intraperitoneal pentobarbital (100 mg/kg). Trachea were removed and dissected under a dissecting microscope into closed rings comprised of two cartilaginous segments. Epithelium was removed by gentle abrasion on the tracheal lumen with cotton. Tissues were placed into cold Krebs-Henseleit (KH) buffer (in mM: NaCl 118, KCl 5.6, CaCl2 0.5, MgSO4 0.24, NaH2PO4 1.3, NaHCO3 25, glucose 5.6, pH 7.4) containing indomethacin 10 uM (DMSO final concentration in organ baths of 0.01%) to block tone due to endogenous release of prostanoids. […]
To determine the direct relaxant effect of α4 subunit containing GABAA receptor activation using different contractile agonists, GP tracheal rings prepared according to Reference Example 3 were contracted with a single dose (10 mM) of TEA or (1 uM) substance P. Following a plateau in the generated muscle force, a single dose of CM-D-45 (200 um) or vehicle control (DMSO 0.1%) was added to the organ bath buffer and the percentage of relaxation achieved was assessed over 15 minutes in comparison to intra-experimental matched vehicle controls.

[4] = system: GABAAR containing single α-subunits; test: Patch clamp assay of chloride-flux inward currents at GABAAR containing single α-subunits (FIG. 12); type: cell-based; conditions: dose-response curves, α4 or α6 GABAAR compared to other α-subtypes
From the text: Selectivity is quantified by dose-response curves showing greater inward currents (i.e., agonist activity) by action of GABAAR bearing a4 or a6 compared to other α-subtypes.
Two compounds having selective activity bias for α4-GABAAR were identified (FIG. 12). Patch clamp assays were used to quantify chloride flux induced inward currents resulting from agonism of GABAAR containing single α-subunits.

[5] = system: Guinea pig tracheal rings; test: Airway smooth muscle force in guinea pig ex vivo tracheal rings, Example 20; conditions: added after acetylcholine EC50 contraction
Method: Male (400 g) Dunkin Hartley guinea pigs were anesthetized with 100 mg/kg pentobarbital. Trachea were removed and divided into 8 closed circular rings each comprised of 2 cartilagenous segments. Adventitia and epithelium were dissected off under a microscope. Closed rings were suspended in 2 ml Radnoti organ baths connected to a Grass FT03 force transducer under 1 g resting tension at 37° C. with bubbled oxygenation 95% O2/5% CO2 and allowed to equilibrate for 1 h at resting tension with buffer exchanges every 15 min. Continuous digital recording of airway smooth muscle contractile force was done with Biopac hardware connected to Acknowledge v 7.3.3 software. Preliminary contractile challenges with performed with acetylcholine dose responses (0.1 nM-100 uM) 3 times with buffer exchanges and resetting of resting tension between each dose response. The Guinea pig tracheal rings were contracted with acetylcholine (an EC50 concentration for each ring). Following stabilization of the contractile force, the GABAA α5 selective negative modulator or the GABAA non-selective antagonist gabazine was added to the buffer.

Compound: picrotoxin
- antagonism of THIP-induced fluorescent / membrane potential changes (GABAA receptors [1]): attenuation of THIP-induced fluorescent changes
- antagonism of THIP-induced fluorescent / membrane potential changes (GABAA receptors [1]; listed as Picrotoxin): antagonism of THIP mediated membrane potential changes persisted even under conditions of high dose THIP

Compound: COc1ccc(-c2ccc(=N)n(CCCC(=O)O)n2)cc1 [gabazine]
- reversal of agonist potentiation of isoproterenol-mediated relaxation ([2]; gabazine pretreatment 15 min prior to acetylcholine): significantly reversed the THIP potentiation of isoproterenol-mediated relaxation; also recorded: significantly reversed the potentiation of isoproterenol-mediated relaxation provided by taurine
- muscle force, % of initial acetylcholine-induced force ([2]; gabazine pretreatment, then THIP plus isoproterenol, n=8): 53.1±11.4%
- attenuation of THIP induced whole cell currents (GABAA receptors [3]; gabazine with THIP 25 uM, −80 mV): attenuation of the THIP-induced current; also recorded: attenuation of THIP induced whole cell currents

Compound: CNC(=O)c1ncn2c1[C@@H]1CCCN1C(=O)c1cc(OC)ccc1-2 [CM-D-45, N-methyl (S)-11,12,13,13a-tetrahydro-7-methoxy-9-oxo-9H-imidazo-[1,5-a]pyrrolo-[2,1-c][1,4]-benzodiazepine-1-carboxamide]
- membrane polarization, inward rectifying currents (human Jurkat E6-1 cells): hyperpolarizing membrane dose-response signals can be generated
- relaxation of an acetylcholine induced contraction (percent of remaining tone) (murine tracheal rings): relaxation of an acetylcholine (Ach) induced contraction in murine tracheal rings from wild-type but not GABAA α4 knockout mice
- muscle force, % of initial force remaining after substance P contraction (GP tracheal rings; 1 uM substance P contraction): 61.3% and 61.3±16.9%
- muscle force, % of initial TEA-induced force remaining (GP tracheal rings; 10 mM TEA contraction): 54.3% and 54.3±14.3%
- functional selectivity among GABAAR α-subtypes (inward currents, agonist activity) [4]: selectivity bias in favor or α4 and α6-GABAAR

Compound: COc1ccc2c(c1)C(=O)N1CCC[C@H]1c1c(C(=O)OC(C)C)ncn1-2
- melting point: 215 to 217 °C

Compound: CC(C)NCC(O)c1ccc(O)c(O)c1 (stereo not shown) [isoproterenol]
- EC50 ([2]; isoproterenol after a single concentration of 200 uM taurine, n=7): 2.4 nM
- EC50 ([2]; isoproterenol after a single concentration of 500 uM THIP, n=8): 7.6 ± 0.5 nM
- EC50 ([2]; isoproterenol only (THIP experiment), n=8): 32.8 nM
- EC50 ([2]; isoproterenol only (taurine experiment), n=6): 15.8 nM
- EC50 ([2]; isoproterenol with 200 uM taurine subsequent to 200 μM gabazine pretreatment, n=7): 4.7 nM
- EC50 ([2]; isoproterenol with 500 uM THIP subsequent to 500 μM gabazine pretreatment, n=8): 11.8 ± 0.6 nM
- muscle force, % of initial acetylcholine-induced force ([2]; isoproterenol alone at low concentration, n=8): 76.5±8.5%

Compound: NCCS(=O)(=O)O [taurine]
- potentiation of isoproterenol-mediated relaxation [2]: potentiated isoproterenol-mediated relaxation

Compound: COCc1ncn2c1CN(C)C(=O)c1cc(Cl)ccc1-2 [PWZ-029]
- change in airway smooth muscle force [5]: increase in force

Compound: Oc1noc2c1CCNC2 [THIP]
- muscle force, % of initial acetylcholine-induced force ([2]; THIP (500 uM) plus isoproterenol, n=8): 22.9 ±13.2%
- potentiation of isoproterenol-mediated relaxation [2]: significantly potentiated the relaxant effects of isoproterenol
- mean evoked current (GABAA receptors [3]; 10 uM THIP, 11/12 arrays of 20 cells in whole cell configuration): −670.4+27.6 pA
- EC50 (GABAA receptors [3]; THIP 0 to 300 uM, voltage clamped at −80 mV, read-out: EC50, current elicited in whole cell configuration): ~15000 nM and 15000 nM
- EC50 (GABAA receptors [1]; THIP 0 to 10 mM, low chloride buffer, n=12, read-out: EC50, change in relative fluorescence (membrane potential)): 245000 nM
